A word on the IC50: it is the midpoint of a concentration-inhibition curve. Higher therefore signals a need for much substance.

SMILES strings stand for the structures.

The target in the assay is RNA-directed RNA polymerase (Hepacivirus hominis, UniProt O39930). The experiment in a line: Inhibitory concentration for NS5B RNA-dependent RNA polymerase of Hepatitis C virus.
RNA-directed RNA polymerase, sequence (O39930 whole entry): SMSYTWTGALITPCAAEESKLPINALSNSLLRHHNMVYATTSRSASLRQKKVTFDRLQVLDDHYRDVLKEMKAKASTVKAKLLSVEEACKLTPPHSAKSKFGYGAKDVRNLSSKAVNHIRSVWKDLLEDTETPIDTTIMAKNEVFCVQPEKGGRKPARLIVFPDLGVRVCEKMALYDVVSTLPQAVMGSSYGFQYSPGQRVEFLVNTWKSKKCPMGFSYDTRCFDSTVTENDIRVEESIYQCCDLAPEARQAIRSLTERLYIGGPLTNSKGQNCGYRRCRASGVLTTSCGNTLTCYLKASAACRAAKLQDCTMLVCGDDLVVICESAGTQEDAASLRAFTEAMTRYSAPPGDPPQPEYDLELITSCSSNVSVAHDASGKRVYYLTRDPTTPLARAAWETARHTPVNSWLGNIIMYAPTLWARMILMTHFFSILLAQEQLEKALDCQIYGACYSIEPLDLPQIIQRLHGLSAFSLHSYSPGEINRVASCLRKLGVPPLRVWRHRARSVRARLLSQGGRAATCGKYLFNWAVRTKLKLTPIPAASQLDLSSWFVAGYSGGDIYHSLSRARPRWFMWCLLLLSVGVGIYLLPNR
The compound `Cc1cc(S(=O)(=O)Nc2cc(-c3ccccc3)sc2C(=O)O)c(C)cc1Cl` gave a 50% inhibitory concentration (IC50) of 5 µM. To `O=C(O)c1sc(-c2ccccc2)cc1NS(=O)(=O)c1ccccn1` belongs 25 µM. As to `Cc1ccccc1S(=O)(=O)Nc1cc(-c2ccncc2)sc1C(=O)O`, half-maximal inhibition (IC50) was put at 4 µM. To `O=C(O)c1sc(-c2ccccc2)cc1NS(=O)(=O)c1ccc(C(F)(F)F)cn1` belongs 15 µM; to `Cc1cc(S(=O)(=O)Nc2cc(-c3ccccc3)sc2C(N)=O)c(C)cc1Cl`, 14 µM. The compound `O=C(O)c1sc(-c2ccc(F)cc2)cc1NS(=O)(=O)c1ccccn1` came in with a 50% inhibitory concentration (IC50) of 4 µM.

Values taken from ChEMBL document CHEMBL1137977, “HCV NS5B polymerase-bound conformation of a soluble sulfonamide inhibitor by 2D transferred NOESY” (Bioorg Med Chem Lett, 2004).
